Article PMC11381307 (Frontiers in Pharmacology, 2024)

Tests used:
[1] = tested on: UGT1A1/1A3; conditions: 50 μM, 96 h treatment; 100 μM substrate, 30 min
Experimental: (§1) Cryopreserved human hepatocytes were recovered in a pre-warmed incubation medium, diluted to a viable cell density (∼0.7 × 10^6 cells/mL) using a plating medium, followed by the addition of 100 μL hepatocytes into each well of a collagen I-coated 96-well plate. The cell monolayer was formed after an overnight incubation period at 37°C under 5%CO2. The plating medium was then replaced with an incubation medium for further culture. On the second day, an incubation medium containing different concentrations of either compound, the inducer omeprazole (final concentration of 50 μM), or vehicle (0.1% [v/v] dimethyl sulfoxide [DMSO]). […] At the end of the incubation period, the medium was replaced with a substrate for UGT and MPA. […] Finally, the supernatant was collected after centrifugation at 4,000 rpm for 10 min and analyzed for glucuronide formation using liquid chromatography-mass spectrometry (LC-MS).
(§2) The formation of glucuronide metabolites, as determined with LC-MS, was used to calculate the formation rate linked to enzyme activity according to Equation 1. […]
(§3) The percentage of enzyme activity relative to the NC (%) was determined using Equation 2. […]
(§4) The formation of 4-trifluoromethyl-7-hydroxycoumarin glucuronide and estradiol-3-glucuronide was detected to evaluate the induction of UGT enzyme activity compared with that in the NC group.

[2] = tested on: UGT; assay: Human hepatocyte UGT induction study, conversion of MPA to MPAG; type: cell-based; conditions: 50 μM, 96 h treatment
Experimental: Cryopreserved human hepatocytes were recovered in a pre-warmed incubation medium, diluted to a viable cell density (∼0.7 × 10^6 cells/mL) using a plating medium, followed by the addition of 100 μL hepatocytes into each well of a collagen I-coated 96-well plate. The cell monolayer was formed after an overnight incubation period at 37°C under 5%CO2. The plating medium was then replaced with an incubation medium for further culture. On the second day, an incubation medium containing different concentrations of either compound, the inducer omeprazole (final concentration of 50 μM), or vehicle (0.1% [v/v] dimethyl sulfoxide [DMSO]). […] At the end of the incubation period, the medium was replaced with a substrate for UGT and MPA. Following a further incubation of 15 or 30 min at 37°C under 5% CO2, 100 μL of the reaction medium was transferred to 400 μL of ice-cold methanol containing internal standard (IS) to terminate the reaction. Finally, the supernatant was collected after centrifugation at 4,000 rpm for 10 min and analyzed for glucuronide formation using liquid chromatography-mass spectrometry (LC-MS).
The formation of glucuronide metabolites, as determined with LC-MS, was used to calculate the formation rate linked to enzyme activity according to Equation 1. Formation rate pmol/10^6 cells/min=amount of glucuronide metabolites formation pmol/number of cells 10^6 cells×incubation time min (1)
The percentage of enzyme activity relative to the NC (%) was determined using Equation 2. Relative enzyme activity % of NC=formation rate in the compound−treated group/that in NC×100 (2)

[3] = tested on: UGT1A9/2B7; conditions: 50 μM, 96 h treatment; 100 μM substrate, 30 min
Experimental: as §1, §2, §3, §4

[4] = molecular target: MRP2 (Homo sapiens, UniProt Q92887); assay: biochemical
Sequence of MRP2 (Q92887 whole entry): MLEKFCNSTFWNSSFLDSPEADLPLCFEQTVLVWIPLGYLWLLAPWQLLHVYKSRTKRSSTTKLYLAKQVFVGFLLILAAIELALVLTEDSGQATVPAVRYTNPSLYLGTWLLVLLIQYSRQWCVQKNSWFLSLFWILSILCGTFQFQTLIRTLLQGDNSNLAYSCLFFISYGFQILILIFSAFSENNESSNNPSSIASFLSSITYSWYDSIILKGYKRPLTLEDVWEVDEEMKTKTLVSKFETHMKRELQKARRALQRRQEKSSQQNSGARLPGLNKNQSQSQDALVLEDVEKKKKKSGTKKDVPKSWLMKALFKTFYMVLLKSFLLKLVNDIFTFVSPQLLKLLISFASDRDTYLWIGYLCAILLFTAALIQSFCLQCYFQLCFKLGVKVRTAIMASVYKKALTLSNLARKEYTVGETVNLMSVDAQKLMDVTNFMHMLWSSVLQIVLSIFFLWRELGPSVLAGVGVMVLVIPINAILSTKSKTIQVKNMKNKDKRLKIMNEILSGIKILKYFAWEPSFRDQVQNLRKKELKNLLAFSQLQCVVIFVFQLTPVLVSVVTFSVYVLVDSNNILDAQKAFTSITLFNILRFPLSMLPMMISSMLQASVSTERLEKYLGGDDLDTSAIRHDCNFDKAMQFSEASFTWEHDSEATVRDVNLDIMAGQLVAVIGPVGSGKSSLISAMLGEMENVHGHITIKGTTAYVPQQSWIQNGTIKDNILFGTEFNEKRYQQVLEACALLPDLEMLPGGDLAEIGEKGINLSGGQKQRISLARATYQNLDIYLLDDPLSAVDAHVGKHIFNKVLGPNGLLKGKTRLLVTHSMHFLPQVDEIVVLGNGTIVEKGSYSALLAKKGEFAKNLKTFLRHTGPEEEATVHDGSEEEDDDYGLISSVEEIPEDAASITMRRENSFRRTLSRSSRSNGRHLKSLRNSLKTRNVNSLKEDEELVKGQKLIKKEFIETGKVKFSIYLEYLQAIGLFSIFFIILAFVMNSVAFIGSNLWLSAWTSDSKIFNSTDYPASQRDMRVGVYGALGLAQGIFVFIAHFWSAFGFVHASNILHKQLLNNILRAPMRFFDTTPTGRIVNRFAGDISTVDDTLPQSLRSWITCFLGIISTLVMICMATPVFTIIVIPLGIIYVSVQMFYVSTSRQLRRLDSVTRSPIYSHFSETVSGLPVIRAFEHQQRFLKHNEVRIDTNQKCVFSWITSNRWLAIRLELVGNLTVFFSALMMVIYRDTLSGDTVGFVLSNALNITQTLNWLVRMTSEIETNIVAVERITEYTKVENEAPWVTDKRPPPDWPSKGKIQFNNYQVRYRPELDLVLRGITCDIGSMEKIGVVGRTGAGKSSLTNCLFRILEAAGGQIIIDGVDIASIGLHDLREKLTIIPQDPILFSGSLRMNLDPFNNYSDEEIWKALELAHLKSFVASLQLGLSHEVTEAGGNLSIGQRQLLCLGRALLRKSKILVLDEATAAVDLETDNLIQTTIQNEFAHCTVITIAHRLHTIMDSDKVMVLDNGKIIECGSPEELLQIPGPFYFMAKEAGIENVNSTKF
Experimental: The substrate study was performed at 37°C with a water bath using a mixture comprising of 10 μL of vesicle membranes (5 mg/mL) and 10 μL of Buffer A2 (replaced with 5 μL Reagent G and 5 μL inhibitors for the inhibitor groups). The mixture was pre-incubated at 37°C with a water bath for 5 min. Meanwhile, 10 μL of dosing solution of the compounds or probe substrates and 10 μL of Reagent C2 (ATP) or D2 (AMP, as the non-ATP dependent control) were mixed and pre-incubated at 37°C for 5 min. Following pre-incubation, the two mixtures were mixed and incubated for an additional 5 min.
After incubation, the reactions were stopped with ice-cold Buffer B, filtered through a 96-well filter plate to separate vesicle-associated ligands from the matrix, and washed five times with ice-cold Buffer B. The vesicles on the filer plate were dissolved using 50 μL of 80% methanol (v/v), and the filtrate was collected by centrifugation at 2000 rpm for 2 min. The dissolution and centrifugation procedures were repeated. […] The supernatant was collected to quantify the amount of compound or substrate using LC-MS. […]
For the substrate assay, the amount of compounds in the vesicle was determined with LC-MS to calculate the transport activity, UR, and inhibition rate using Equations 11–13, which were used to determine whether the compounds were substrates of the transporter. […]

## COc1ccc2[nH]c([S+]([O-])Cc3ncc(C)c(OC)c3C)nc2c1 (stereo not shown) [omeprazole]
[1]
  β-estradiol glucuronidation activity, % of NC (Mean): 243 % of NC
[2]
  formation of MPAG, % of NC (Mean): 110 % of NC
[3]
  4-trifluoromethyl-7-hydroxycoumarin glucuronidation activity, % of NC (Mean): 145 % of NC

## CCc1oc2ccccc2c1C(=O)c1cc(Br)c(O)c(Br)c1 [benzbromarone]
[4]
  IC50: 17.6 µM
